Assay results published in the NIST ThermoML archive (doi:10.1021/acs.jced.8b00015).
Numbers after ± are expanded uncertainties.

Key:
[1] = xn = mol fraction of the nth substance listed; settings: 298.15 K, 101.3 kPa, Liquid
[2] = Crystal; DTA

Structure (SMILES) | mass density ([1]; Pycnometric method, x2 = 0.143) [kg/m3] | mass density ([1]; Pycnometric method, x1 = 0.2) [kg/m3] | mass density ([1]; Pycnometric method, x1 = 0.25) [kg/m3] | also measured
CN(CCO)CCO [N-methyldiethanolamine] + C[N+](C)(C)CCO.[Cl-] | 1046.8 ± 21 | – | – | mass density ([1]; Pycnometric method, x2 = 0.125): 1053.8 ± 21 kg/m3
C[N+](C)(C)CCO.[Cl-] [choline chloride] + OCCO | – | – | – | mass density ([1]; Vibrating tube method, x1 = 0.333): 1116.8 ± 22 kg/m3
C[N+](C)(C)CCO.[Cl-] [choline chloride] + OCCOCCO | – | 1112.1 ± 22 | 1116.9 ± 22 | –
OCCNCCO [diethanolamine] | – | – | – | Normal melting temperature [2]: 27.00 ± 0.5 °C
OCCNCCO [diethanolamine] + CCCC[N+](CCCC)(CCCC)CCCC.[Br-] | 1092.7 ± 22 | – | – | –
OCCNCCO [diethanolamine] + C[N+](C)(C)CCO.[Cl-] | 1098.4 ± 22 | – | – | –
CCCC[N+](CCCC)(CCCC)CCCC.[Br-] [tetrabutylammonium bromide] + CN(CCO)CCO | – | 1056.9 ± 21 | 1051.3 ± 21 | –
CCCC[N+](CCCC)(CCCC)CCCC.[Br-] [tetrabutylammonium bromide] + OCCO | – | 1072.7 ± 22 | 1069.8 ± 21 | mass density ([1]; Pycnometric method, x1 = 0.333): 1065.8 ± 21 kg/m3
CCCC[N+](CCCC)(CCCC)CCCC.[Br-] [tetrabutylammonium bromide] + OCCOCCO | – | 1081.8 ± 22 | 1078.2 ± 22 | mass density ([1]; Pycnometric method, x1 = 0.333): 1075.4 ± 22 kg/m3
